# Patent US20260256771A1, “GALUNISERTIB FOR USE IN THE TREATMENT OF ANDROGENIC ALOPECIA” (SAÚDE VIÁVEL, S.A., priority 2022, published 2026)
# Experiments:
# [1] = system: human hair follicle organ cultures (HFOCs); test: Ex vivo human scalp hair follicle organ culture: catagen onset and hair shaft elongation; type: cell-based; details: 10 μM; in comparison to untreated controls; 10 days culture
# Source text: FIG. 2. Galunisertib delays catagen entry in HFOCs. a) Hair growth ex vivo (HFOCs) under different treatment conditions for 10 days. Representative HF photos for each condition over time are shown in the panels. DP detachment was used as readout for catagen onset. Scale bar, 1 mm. b) Catagen onset timing in HFOCs under different treatment conditions as indicated. c) Percentage of hair shaft elongation in comparison to day 0. In b) and c), values are mean±SD of HFOCs established from n=5 independent donors (n>20 HFs per condition). ns not significant, *p≤0.05, **p≤0.01 by Mann-Whitney (b,c).
# In addition, only anagen hair follicles are used.
# (§1) Hair growth percentages is normalized to day 0.
# [2] = system: LEF1; test: Immunohistochemistry of cryo-sectioned HFOCs: LEF1; type: cell-based, human; details: Galunisertib 48 h vs untreated
# Source text: as §1
# FIG. 6. Galunisertib improves the WNT signaling in the bulb epithelial compartment. a) Representative IHC images of tissue sections of HFOCs with and without Galunisertib and stained for LEF1 (red) and β-catenin (green). Nuclei were counterstained with DAPI (blue). Scale bar, 100 μm. b,e) Adjusted intensity levels of LEF1 and β-catenin per DP and HB (bulb epithelium) areas, as measured in tissue sections from HFOCs with and without Galunisertib. All values are mean±SD of HFOCs established from n=4 donors (n>8 HFs per condition). ns p≥0.05, *p≤0.05 by unpaired t-test.
# (§2) For immunohistochemistry, 2-day HFOCs are used for immunohistochemistry analysis. Briefly, HFs were embedded on a drop of OCT and stored at −80° C. 8 μm cryosections are air-dried and fixed in 4% PFA (for TGFβ2, cleavage Caspase 3, p-SMAD2 and KI67 immunostainings) or cold acetone (for LEF1 and β-catenin immunostaining). Following 2×5 min rinse with PBS, microsections are permeabilized 2× for 10 min with PBS+0.3% Triton X 100 (PBS-T) and then blocked with PBS+10% fetal bovine serum (FBS) for 1 hour at room temperature. Antibodies are diluted in PBS-T+1% FBS and incubation done overnight at 4° C. […]
# [3] = system: Ki67 proliferation marker; test: Ki67 immunohistochemistry of mouse dorsal skin (hair germ); type: in vivo
# Method: FIG. 8. Galunisertib increases anagenic hair follicle growth. a) Hematoxilin-eosin staining of transversal paraffin sections of the dorsal skin of mice treated with vehicle (control), galunisertib (10 μM and 100 μM) or minoxidil at days 0, 5, 7, 14, 16 and 18 of treatment. Scale bar, 500 μm. b) Number of hair follicles per field view and c) number of hair follicles per field view in the subcutaneous layer at different timepoints along the experiment. d) Ki67 immunostaining of longitudinal paraffin sections of the dorsal skin of mice treated with vehicle (control), galunisertib (10 μM and 100 μM) or minoxidil at days 5, 7 and 14. Scale bar, 200 μm. e) Number of Ki67-positive cells in the hair bulb at days 5, 7 and 14. N≥3 animals per timepoint per condition were analyzed, and N≥4 field views were quantified per animal. Values are mean±SD. *p<0.05; **p<0.01 by Student's t-test.
# For histology and immunohistochemistry, dorsal skin from the depilated region is collected from mice at different timepoints across the experiment (days 0, 5, 7, 14 and 18) and fixed in 10% buffered formalin, imbedded in paraffin and sectioned along the transversal and longitudinal plan of the hair follicles (3 μm sections). Standard protocol is used for hematoxylin and eosin staining. […]
# [4] = system: p-SMAD2; test: Immunohistochemistry of cryo-sectioned HFOCs: p-SMAD2; type: cell-based, human
# Source text: as §1
# FIG. 4. Galunisertib inhibits TGFβ2 paracrine signaling in the bulb epithelial compartment. a) Representative Immunohistochemistry (IHC) images of tissue sections of HFOCs untreated and treated with Galunisertib as indicated and stained for TGFβ2 and p-SMAD2. In the upper left frame is exemplified how the dermal papilla (DP) and adjacent bulb epithelial compartment (HB) regions were delineated for quantitative analyses shown in b-e. Nuclei were counterstained with DAPI. Scale bar, 100 μm. b-e) Adjusted intensity levels of TGFβ2 and p-SMAD2 per DP and HB areas as measured in tissue sections from untreated and Galunisertib-treated HFOCs. Values are mean±SD of HFOCs established from n=4 donors (n>9 HFs per condition). ns p≥0.05, *p≤0.05 by unpaired t-test.
# as §2, with “temperature.” for “temperature. Antibodies are diluted in PBS-T+1% FBS and incubation done overnight at 4° C.”
# [5] = system: cleaved Caspase 3; test: Immunohistochemistry of cryo-sectioned HFOCs: cleaved Caspase 3; type: cell-based, human; details: mainly detected in the DP; HFOCs treated with Galunisertib for 48 h vs untreated
# Source text: as §1
# FIG. 5. Galunisertib improves cell proliferation and the WNT signaling in the bulb epithelial compartment. a) Representative IHC images of tissue sections of HFOCs untreated and treated with Galunisertib and stained for KI67 and cleaved caspase 3. Nuclei were counterstained with DAPI. Scale bar, 100 μm. b,c) Adjusted intensity levels of KI67 and cleaved caspase 3 per DP and HB (bulb epithelium) areas, respectively, as measured in tissue sections from HFOCs with and without Galunisertib. All values are mean±SD of HFOCs established from n=8 donors (n>16 HFs per condition). ns p≥0.05, *p≤0.05 by unpaired t-test.
# as §2
smiles,measurement,setting,value
Cc1cccc(-c2nn3c(c2-c2ccnc4ccc(C(N)=O)cc24)CCC3)n1 [Galunisertib],catagen entry (mean time HFOCs take to enter catagen),[1],capable of delaying catagen entry
same,hair shaft elongation,[1],impact in the hair shaft elongation
same,LEF1 levels in the bulb epithelium,[2]; bulb epithelium,increased levels
same,LEF1 levels in the DP,[2]; dermal papilla,not significantly upregulated
same,"Ki67-positive cells in the hair germ, comparison with minoxidil",[3]; day 7,more effective than minoxidil
same,number of Ki67-positive cells in the hair germ,"[3]; days 5, 7 and 14 post-treatment, vs vehicle treatment",increased number of Ki67-positive cells
same,p-SMAD2 fluorescence intensity levels at the bulb epithelial compartment,"[4]; bulb epithelial compartment surrounding the DP, Galunisertib 48 h vs untreated",decreased levels
same,p-SMAD2 in DP (fluorescence intensity),"[4]; dermal papilla, HFOCs with or without Galunisertib for 48 h",not significantly reduced
same,fluorescence intensity levels of cleaved Caspase 3,[5],do not show significant changes
